{"source": "paper PMC2847018", "about": "(Biochemical pharmacology, 2010)", "key": {"[1]": {"test_system": "placental carbonyl-reducing enzymes (human placental microsomes)", "format": "biochemical", "details": "bupropion 40 μM, pooled placental microsomes, 40 min 37°C; for effect on formation of threo- and erythrohydrobupropion: inhibitor 500 μM"}, "[2]": {"test_system": "placental carbonyl-reducing enzymes (human placental microsomes)", "test": "Type of inhibition and Ki of 18β-GA on bupropion reduction", "format": "biochemical", "details": "Lineweaver-Burk plot: apparent Km increased, Vmax not affected"}, "11β-HSD1": {"test_system": "11β-HSD1", "details": "11β-HSD1 ref 44; cited from earlier work"}, "[3]": {"test": "Kinetics of bupropion reduction by human placental microsomes", "format": "in vitro ADME", "details": "Mean±S.D. of HPM 1-6"}}, "note": "pIC50: −log10 of the molar value. Entries after “also recorded” stand apart in the source; their conditions may differ. Counter-ions that a name gives are not always drawn. Like-named read-outs stand apart in the source and are kept apart here."}
{"smiles": "Cc1cn[nH]c1", "note": "[4-methylpyrazole]", "values": [{"measurement": "effect on formation of threo- and erythrohydrobupropion", "setting": "[1]", "value": "did not inhibit"}]}
{"smiles": "CC1(C)[C@@H](O)CC[C@]2(C)[C@H]3C(=O)C=C4[C@@H]5C[C@@](C)(C(=O)O)CC[C@]5(C)CC[C@@]4(C)[C@]3(C)CC[C@@H]12", "note": "[18β-GA, 18β-glycyrrhetinic acid]", "values": [{"measurement": "inhibition of formation of threo- and erythrohydrobupropion", "setting": "[1]; inhibitor 0.1 μM", "value": 80, "unit": "%"}, {"measurement": "type of inhibition of bupropion reduction", "setting": "[2]", "value": "competitive"}, {"measurement": "pIC50", "setting": "11β-HSD1", "value": "[…]"}]}
{"smiles": "CCC1(CC)C(=O)NC(=O)NC1=O", "note": "[barbital]", "values": [{"measurement": "effect on formation of threo- and erythrohydrobupropion", "setting": "[1]", "value": "did not inhibit"}]}
{"smiles": "CC(NC(C)(C)C)C(=O)c1cccc(Cl)c1", "note": "(stereo not shown) [bupropion, Bupropion hydrochloride]", "values": [{"measurement": "Vmax, erythrohydrobupropion formation", "setting": "[3]", "value": "3.1±1.2 picomoles per minute per milligram of protein"}, {"measurement": "Vmax, threohydrobupropion formation", "setting": "[3]", "value": "18.6±6.1 picomoles per minute per milligram of protein"}]}
{"smiles": "O=c1oc2ccccc2c(O)c1Cc1c(O)c2ccccc2oc1=O", "note": "[dicumarol]", "values": [{"measurement": "effect on formation of threo- and erythrohydrobupropion", "setting": "[1]", "value": "did not inhibit; also recorded: did not affect"}]}
{"smiles": "O=C(O)c1ccccc1Nc1cccc(C(F)(F)F)c1", "note": "[flufenamic acid]", "values": [{"measurement": "inhibition of formation of threo- and erythrohydrobupropion", "setting": "[1]; inhibitor 4 μM", "value": 50, "unit": "%"}]}
{"smiles": "CC1=CC(=O)c2ccccc2C1=O", "note": "[menadione]", "values": [{"measurement": "inhibition of formation of threo- and erythrohydrobupropion", "setting": "[1]; inhibitor 100 μM", "value": 70, "unit": "%"}]}
